Molecular target: T1, bovine Mincle (Bos taurus, UniProt E1BHM0)
T1 construct: mouse T-cell hybridoma with FcRgamma), plate assay
T1 sequence (E1BHM0 1-211): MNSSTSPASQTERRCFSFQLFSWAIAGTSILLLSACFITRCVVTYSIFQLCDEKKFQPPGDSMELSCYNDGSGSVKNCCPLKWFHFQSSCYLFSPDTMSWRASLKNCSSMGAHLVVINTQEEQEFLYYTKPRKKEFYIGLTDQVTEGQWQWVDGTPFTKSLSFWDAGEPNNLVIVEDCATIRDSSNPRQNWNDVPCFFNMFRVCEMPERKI
Assay: Mincle ligand activity, NFAT-GFP reporter cells expressing bovine Mincle (Experimental Example 1)
Type: cell-based
Settings: 0.03 to 3 nmol, FIG. 1 right
Method: Similarly, using NFAT-GFP reporter cells expressing bovine Mincle, prepared according to the method described in a literature (Yamasaki, S. et al, Nat Immunol 9, 1179-88(2008)), the ligand activity of HD-276 was evaluated on a 96-well plate. The doses of the test compounds (horizontal axis) were 0.03 to 3 (nmol) from the left to right.

Mincle ligand activity: confirmed to have Mincle ligand activity
SMILES: CCCCCCc1ccc(O[C@@H]2OC(C)[C@H](O)[C@H](OC)C2O[C@@H]2OC(C)[C@H](O[C@@H]3OC(COC)[C@@H](O)C(O)[C@@H]3O)[C@H](OC)C2OC)cc1 (stereo in doubt) [HD-276]

Reference: patent US20260295038A1, “GLYCOLIPID DERIVATIVE AS MINCLE LIGAND” (priority 2023, published 2026)
